We go through one compound from US12195804B2, “Treatment of squamous cell carcinoma” (Board of Regents, The University of Texas System, priority 2018, dated 2025).

The test system of assay [1] is HN31 and UM22A orthotopic xenografts. The assay is described as follows: Orthotopic tongue xenograft models of NOTCH1MUT HNSCC. The format is in vivo, athymic nude mice. How it is done: FIGS. 8A-8D: PI3K/mTOR pathway inhibitors cause apoptosis and reduce tumor size in NOTCH1^MUT head and neck squamous cell carcinoma (HNSCC) in vivo. FIGS. 8A and 8B. The NOTCH1^MUT cell lines HN31 (FIG. 8A) and UMSCC22A (UM22A; FIG. 8B) were injected subcutaneously (SQ) into athymic nude mice. After tumors reached 150 mm^3, the mice were randomized to receive either vehicle control (2-hydroxypropyl-β-cyclodextrin) or 1 mg/kg GSK2126458 (GSK212) by oral gavage daily for 28 days. Tumor sizes were measured and tumor volumes were calculated at the indicated times, and the percent change in tumor volume at the end of therapy was calculated using the formula (final tumor volume−initial tumor volume/initial tumor volume)×100%. The percentages of TUNEL-positive cells were calculated from image quantification at 40× magnification. FIGS. 8C and 8D. HN31 (FIG. 8C) and UM22A (FIG. 8D) were implanted orthotopically (OT) into the anterior tongues of athymic nude mice. […] Tumor sizes were measured, and tumor volumes and percent changes in tumor volumes were calculated as above. […] The percentages of TUNEL-positive cells were calculated as described above. Data are means±standard deviations from 5 mice per group; p values were calculated using an unpaired t-test with the Welch correction. […]

A further assay relates to UMSCC49 cells. Kind of assay: CellTiter-Glo viability, UMSCC49 parental and NOTCH1 KO. Format: cell-based, human. Particulars: 72 hours. How it is done: FIGS. 9A-9D: NOTCH1 knockout (KO) sensitizes two NOTCH1^WT head and neck squamous cell carcinoma (HNSCC) cell lines to PI3K/mTOR pathway inhibition in vitro. Two NOTCH1^WT HNSCC cell lines (PJ34 and UMSCC49 [UM49]), parental cell lines, and NOTCH1 KO cell lines were treated with PI3K/mTOR pathway inhibitors. FIG. 9A. The CellTiter-Glo assay was used to assess the viability of cells treated for 72 hours with the indicated concentrations of GSK2126458 (GSK212). FIG. 9B. Western blot analysis of apoptosis markers, NOTCH1, and NOTCH intracellular domain (NICD) was performed after treatment with the indicated concentrations of GSK212 for 48 hours. FIG. 9C. Apoptosis in cells treated with 50 nM GSK212 or 200 nM BEZ235 for 48 hours was measured using an Annexin V/propidium iodide assay. Values are the means±standard deviations of three independent experiments. *p<0.05, unpaired two-tailed Student t-test. FIG. 9D. […] Colony areas as percentages of the control were measured using ImageJ. […]
Cell viability assay. […] Inhibitory concentration (ICs) and area under the curve (AUC) values were calculated using the drexplorer R package with a best-fit dose-response model (Zumsteg et al., 2016). The combination indices were calculated using the Chou-Talalay method (Cal et al., 2017) in CalcuSyn (Biosoft, Cambridge, UK). […]

On to `COc1ncc(-c2ccc3nccc(-c4ccnnc4)c3c2)cc1NS(=O)(=O)c1ccc(F)cc1F` [GSK2126458], for which, in assay [1] (3 mg/kg oral gavage daily 28 days), the “tumor size compared with vehicle” value is reported as “significantly reduced tumor size”. Also, the “apoptosis in tumors (TUNEL staining)” value in assay [1] (3 mg/kg oral gavage, end of treatment) is on record as “underwent apoptosis”. In addition, the figures for the IC70 in the assay with UMSCC49 cells (UMSCC49 NOTCH1 KO) and in the assay with UMSCC49 cells (UMSCC49 parental) were 360 nM and 1480 nM, respectively.
